Source: PMC9260974 (BMC Pharmacology & Toxicology, 2022)

Experiments:
clinical = settings: human, in vivo
[1] = in vivo; cited from earlier work
[2] = Single-dose two-period crossover bioequivalence study, fasting: plasma pharmacokinetics of lisinopril and amlodipine (LC-MS/MS, NCA); settings: for concentration at 0 h / concentration at 1 h / concentration at 2 h / concentration at 3 h / concentration at 4 h / concentration at 5 h / concentration at 6 h / concentration at 7 h / concentration at 8 h / concentration at 9 h / concentration at 10 h / concentration at 11 h / concentration at 12 h / concentration at 13 h / concentration at 24 h / concentration at 36 h / concentration at 48 h / concentration at 72 h / concentration at 96 h / concentration at 144 h / concentration at 168 h: human, plasma, po, Plasma concentration of amlodipine, reference (R) tablets; for concentration at 0 h: nominal time 0 h; for concentration at 1 h: nominal time 1 h; for concentration at 2 h: nominal time 2 h; for concentration at 3 h: nominal time 3 h; for concentration at 4 h: nominal time 4 h; for concentration at 5 h: nominal time 5 h; for concentration at 6 h: nominal time 6 h; for concentration at 7 h: nominal time 7 h; for concentration at 8 h: nominal time 8 h; for concentration at 9 h: nominal time 9 h; for concentration at 10 h: nominal time 10 h; for concentration at 11 h: nominal time 11 h; for concentration at 12 h: nominal time 12 h; for concentration at 13 h: nominal time 13 h; for concentration at 24 h: nominal time 24 h; for concentration at 36 h: nominal time 36 h; for concentration at 48 h: nominal time 48 h; for concentration at 72 h: nominal time 72 h; for concentration at 96 h: nominal time 96 h; for concentration at 144 h: nominal time 144 h; for concentration at 168 h: nominal time 168 h
[3] = amlodipine, intra-subject coefficient of variation

CCOC(=O)C1=C(COCCN)NC(C)=C(C(=O)OC)C1c1ccccc1Cl (centres unmarked) [amlodipine]
Tmax (clinical): ~6 h
Absorption [1]: almost completely absorbed
Intra-CV (%) of AUC0-t [2, 3]: 9.9%
Intra-CV (%) of AUC0-∞ [2, 3]: 10.5%
Intra-CV (%) of Cmax [2, 3]: 9.7%
concentration at 0 h ([2]; Max, maximum over subjects): 0 ng/mL
concentration at 1 h ([2]; Max, maximum over subjects): 2.24 ng/mL
concentration at 2 h ([2]; Max, maximum over subjects): 2.57 ng/mL
concentration at 3 h ([2]; Max, maximum over subjects): 3.08 ng/mL
concentration at 4 h ([2]; Max, maximum over subjects): 2.45 ng/mL
concentration at 5 h ([2]; Max, maximum over subjects): 2.98 ng/mL
concentration at 6 h ([2]; Max, maximum over subjects): 4.18 ng/mL
concentration at 7 h ([2]; Max, maximum over subjects): 2.76 ng/mL
concentration at 8 h ([2]; Max, maximum over subjects): 3.48 ng/mL
concentration at 9 h ([2]; Max, maximum over subjects): 3.04 ng/mL
concentration at 10 h ([2]; Max, maximum over subjects): 2.86 ng/mL
concentration at 11 h ([2]; Max, maximum over subjects): 2.92 ng/mL
concentration at 12 h ([2]; Max, maximum over subjects): 2.98 ng/mL
concentration at 13 h ([2]; Max, maximum over subjects): 2.75 ng/mL
concentration at 24 h ([2]; Max, maximum over subjects): 2.45 ng/mL
concentration at 36 h ([2]; Max, maximum over subjects): 1.96 ng/mL
concentration at 48 h ([2]; Max, maximum over subjects): 1.69 ng/mL
concentration at 72 h ([2]; Max, maximum over subjects): 1.21 ng/mL
concentration at 96 h ([2]; Max, maximum over subjects): 1.11 ng/mL
concentration at 144 h ([2]; Max, maximum over subjects): 0.574 ng/mL
concentration at 168 h ([2]; Max, maximum over subjects): 0.455 ng/mL
concentration at 0 h ([2]; Mean, mean of subjects): 0 ng/mL
concentration at 1 h ([2]; Mean, mean of subjects): 0.686 ng/mL
concentration at 2 h ([2]; Mean, mean of subjects): 1.24 ng/mL
concentration at 3 h ([2]; Mean, mean of subjects): 1.51 ng/mL
concentration at 4 h ([2]; Mean, mean of subjects): 1.6 ng/mL
concentration at 5 h ([2]; Mean, mean of subjects): 2.03 ng/mL
concentration at 6 h ([2]; Mean, mean of subjects): 2.16 ng/mL
concentration at 7 h ([2]; Mean, mean of subjects): 2.04 ng/mL
concentration at 8 h ([2]; Mean, mean of subjects): 2.08 ng/mL
concentration at 9 h ([2]; Mean, mean of subjects): 1.96 ng/mL
concentration at 10 h ([2]; Mean, mean of subjects): 1.85 ng/mL
concentration at 11 h ([2]; Mean, mean of subjects): 1.77 ng/mL
concentration at 12 h ([2]; Mean, mean of subjects): 1.74 ng/mL
concentration at 13 h ([2]; Mean, mean of subjects): 1.65 ng/mL
concentration at 24 h ([2]; Mean, mean of subjects): 1.41 ng/mL
concentration at 36 h ([2]; Mean, mean of subjects): 1.13 ng/mL
concentration at 48 h ([2]; Mean, mean of subjects): 0.928 ng/mL
concentration at 72 h ([2]; Mean, mean of subjects): 0.64 ng/mL
concentration at 96 h ([2]; Mean, mean of subjects): 0.446 ng/mL
concentration at 144 h ([2]; Mean, mean of subjects): 0.2 ng/mL
concentration at 168 h ([2]; Mean, mean of subjects): 0.137 ng/mL
concentration at 0 h ([2]; Min, minimum over subjects): 0 ng/mL
concentration at 1 h ([2]; Min, minimum over subjects): 0.26 ng/mL
concentration at 2 h ([2]; Min, minimum over subjects): 0.452 ng/mL
concentration at 3 h ([2]; Min, minimum over subjects): 0.598 ng/mL
concentration at 4 h ([2]; Min, minimum over subjects): 0.834 ng/mL
concentration at 5 h ([2]; Min, minimum over subjects): 1.26 ng/mL
concentration at 6 h ([2]; Min, minimum over subjects): 1.14 ng/mL
concentration at 7 h ([2]; Min, minimum over subjects): 1.03 ng/mL
concentration at 8 h ([2]; Min, minimum over subjects): 0.988 ng/mL
concentration at 9 h ([2]; Min, minimum over subjects): 0.918 ng/mL
concentration at 10 h ([2]; Min, minimum over subjects): 0.806 ng/mL
concentration at 11 h ([2]; Min, minimum over subjects): 0.82 ng/mL
concentration at 12 h ([2]; Min, minimum over subjects): 0.829 ng/mL
concentration at 13 h ([2]; Min, minimum over subjects): 0.812 ng/mL
concentration at 24 h ([2]; Min, minimum over subjects): 0.603 ng/mL
concentration at 36 h ([2]; Min, minimum over subjects): 0.482 ng/mL
concentration at 48 h ([2]; Min, minimum over subjects): 0.391 ng/mL
concentration at 72 h ([2]; Min, minimum over subjects): 0.226 ng/mL
concentration at 96 h ([2]; Min, minimum over subjects): 0.123 ng/mL
concentration at 144 h ([2]; Min, minimum over subjects): 0 ng/mL
concentration at 168 h ([2]; Min, minimum over subjects): 0 ng/mL
